Measurements as given in ChEMBL document CHEMBL3046425, “Synthesis of Antifungal 2-Anilino-4-phenylthiazoles and Their Inhibitory Activities on Sterol Biosynthesis” (J Pestic Sci, 2001).
≈ marks a conversion by molar mass, not a printed value.

How the values were obtained:
[1] = system: Botrytis cinerea; test: Antifungal activity against Botryotinia fuckeliana; type: functional, organism-based
[2] = system: Trichophyton mentagrophytes; test: Antifungal activity against Trichophyton mentagrophytes; type: functional
[3] = system: Pyricularia oryzae; test: Antifungal activity against Magnaporthe oryzae; type: functional, organism-based
[4] = system: Trichophyton mentagrophytes; test: Antifungal activity against Trichophyton mentagrophytes assessed as accumulation of squalene using [2-14C]acetate at 1 x 10^-7 M; type: functional
[5] = system: Trichophyton mentagrophytes; test: Antifungal activity against Trichophyton mentagrophytes assessed as accumulation of squalene using [2-14C]acetate at 1 x 10^-8 M; type: functional
[6] = system: Trichophyton mentagrophytes; test: Antifungal activity against Trichophyton mentagrophytes assessed as accumulation of squalene using [2-14C]acetate at 1 x 10^-9 M; type: functional
[7] = target: T1, Squalene epoxidase ERG1 (Saccharomyces cerevisiae S288c) (UniProt P32476); test: Inhibition of squalene epoxidase in Saccharomyces cerevisiae IFO 1346 assessed as incorporation of [2-14C]mevalonate into 4,4-dimethyl sterols at 1 x 10^-4 M after 3 hr; parameters: scale not given: the % may be the effect or the level left
T1 sequence (whole entry): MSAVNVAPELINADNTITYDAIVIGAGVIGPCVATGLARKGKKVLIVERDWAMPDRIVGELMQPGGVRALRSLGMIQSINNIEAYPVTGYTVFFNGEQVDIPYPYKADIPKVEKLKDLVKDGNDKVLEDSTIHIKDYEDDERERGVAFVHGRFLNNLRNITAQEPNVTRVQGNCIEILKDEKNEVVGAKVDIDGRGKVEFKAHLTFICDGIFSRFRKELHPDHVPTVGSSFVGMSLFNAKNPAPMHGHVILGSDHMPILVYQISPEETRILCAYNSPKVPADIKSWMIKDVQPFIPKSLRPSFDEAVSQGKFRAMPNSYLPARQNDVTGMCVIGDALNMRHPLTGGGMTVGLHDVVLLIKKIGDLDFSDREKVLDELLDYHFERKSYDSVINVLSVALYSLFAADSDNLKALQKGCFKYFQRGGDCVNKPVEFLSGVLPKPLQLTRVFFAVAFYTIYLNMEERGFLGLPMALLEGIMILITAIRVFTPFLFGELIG

[8] = target: T1, Squalene epoxidase ERG1 (Saccharomyces cerevisiae S288c); test: Inhibition of squalene epoxidase in Saccharomyces cerevisiae IFO 1346 assessed as incorporation of [2-14C]mevalonate into squalene at 1 x 10^-4 M after 3 hr; parameters: scale not given: the % may be the effect or the level left
[9] = target: T1, Squalene epoxidase ERG1 (Saccharomyces cerevisiae S288c); test: Inhibition of squalene epoxidase in Saccharomyces cerevisiae IFO 1346 assessed as incorporation of [2-14C]mevalonate into 4alpha-methyl sterols at 1 x 10^-5 M after 3 hr; parameters: scale not given: the % may be the effect or the level left
[10] = target: T1, Squalene epoxidase ERG1 (Saccharomyces cerevisiae S288c); test: Inhibition of squalene epoxidase in Saccharomyces cerevisiae IFO 1346 assessed as incorporation of [2-14C]mevalonate into 4-desmethyl sterols at 1 x 10^-4 M after 3 hr; parameters: scale not given: the % may be the effect or the level left
[11] = target: T1, Squalene epoxidase ERG1 (Saccharomyces cerevisiae S288c); test: Inhibition of squalene epoxidase in Saccharomyces cerevisiae IFO 1346 assessed as incorporation of [2-14C]mevalonate into 2,3-oxidosqualene at 1 x 10^-4 M after 3 hr; parameters: scale not given: the % may be the effect or the level left
[12] = target: T1, Squalene epoxidase ERG1 (Saccharomyces cerevisiae S288c); test: Inhibition of squalene epoxidase in Saccharomyces cerevisiae IFO 1346 assessed as incorporation of [2-14C]mevalonate into squalene at 1 x 10^-5 M after 3 hr; parameters: scale not given: the % may be the effect or the level left
[13] = target: T1, Squalene epoxidase ERG1 (Saccharomyces cerevisiae S288c); test: Inhibition of squalene epoxidase in Saccharomyces cerevisiae IFO 1346 assessed as incorporation of [2-14C]mevalonate into 4-desmethyl sterols at 1 x 10^-5 M after 3 hr; parameters: scale not given: the % may be the effect or the level left
[14] = target: T1, Squalene epoxidase ERG1 (Saccharomyces cerevisiae S288c); test: Inhibition of squalene epoxidase in Saccharomyces cerevisiae IFO 1346 assessed as incorporation of [2-14C]mevalonate into 2,3-oxidosqualene at 1 x 10^-5 M after 3 hr; parameters: scale not given: the % may be the effect or the level left
[15] = system: Botrytis cinerea; test: Antifungal activity against Botryotinia fuckeliana assessed as accumulation of squalene using [2-14C]acetate at 1 x 10^-5 M; type: functional
[16] = target: T1, Squalene epoxidase ERG1 (Saccharomyces cerevisiae S288c); test: Inhibition of squalene epoxidase in Saccharomyces cerevisiae IFO 1346 assessed as incorporation of [2-14C]mevalonate into 4alpha-methyl sterols at 1 x 10^-4 M after 3 hr; parameters: scale not given: the % may be the effect or the level left
[17] = target: T1, Squalene epoxidase ERG1 (Saccharomyces cerevisiae S288c); test: Inhibition of squalene epoxidase in Saccharomyces cerevisiae IFO 1346 assessed as incorporation of [2-14C]mevalonate into 4,4-dimethyl sterols at 1 x 10^-5 M after 3 hr; parameters: scale not given: the % may be the effect or the level left
[18] = system: Botrytis cinerea; test: Antifungal activity against Botryotinia fuckeliana assessed as accumulation of squalene using [2-14C]acetate at 1 x 10^-7 M; type: functional
[19] = system: Botrytis cinerea; test: Antifungal activity against Botryotinia fuckeliana assessed as accumulation of squalene using [2-14C]acetate at 1 x 10^-6 M; type: functional
[20] = system: Botrytis cinerea; test: Antifungal activity against Botryotinia fuckeliana assessed as accumulation of squalene using [2-14C]acetate at 3 x 10^-5 M; type: functional

| Compound | EC50 [1] [µg/mL] | MIC [2] [µg/mL] | EC50 [3] [µg/mL] | further results |
| --- | --- | --- | --- | --- |
| Fc1cccc(F)c1-c1csc(Nc2ccc(Cl)cc2)n1 | > 100 | 0.3 (≈ 0.929 µM) | 1 (≈ 3.1 µM) |  |
| FC(F)(F)Oc1ccc(Nc2nc(-c3c(Cl)cccc3Cl)cs2)cc1 | 0.5 (≈ 1.23 µM) | 0.03 (≈ 0.074 µM) | 0.3 (≈ 0.74 µM) |  |
| Clc1ccc(Nc2nc(-c3c(Cl)cccc3Cl)cs2)cc1Cl | 1 (≈ 2.56 µM) | 0.1 (≈ 0.256 µM) | 1 (≈ 2.56 µM) |  |
| Clc1ccc(Nc2nc(-c3cccc(Cl)c3Cl)cs2)cc1 | > 100 | 3 (≈ 8.43 µM) | > 100 |  |
| Clc1ccc(Nc2nc(-c3cccc4ccccc34)cs2)cc1 | 0.3 (≈ 0.891 µM) | 0.1 (≈ 0.297 µM) | 2 (≈ 5.94 µM) | Activity [4]: 83.1%; Activity [5]: 11.7%; Activity [6]: 25.3% |
| C[S+]([O-])c1ccc(Nc2nc(-c3c(Cl)cccc3Cl)cs2)cc1 (stereo not drawn) | > 100 | 30 (≈ 78.3 µM) | 2 (≈ 5.22 µM) |  |
| CC(C)Oc1ccc(Nc2nc(-c3c(Cl)cccc3Cl)cs2)cc1 | > 100 | 30 (≈ 79.1 µM) | 3 (≈ 7.91 µM) |  |
| Clc1cccc(Cl)c1-c1csc(Nc2ccc(I)cc2)n1 | 0.2 (≈ 0.447 µM) | 0.03 (≈ 0.0671 µM) | 0.3 (≈ 0.671 µM) |  |
| FC(F)(F)c1ccc(Nc2nc(-c3c(Cl)cccc3Cl)cs2)cc1 | 0.3 (≈ 0.771 µM) | 0.03 (≈ 0.0771 µM) | 0.3 (≈ 0.771 µM) |  |
| Clc1ccc(Nc2nc(-c3c(Cl)cccc3Cl)cs2)c(Cl)c1 | > 100 | 0.3 (≈ 0.769 µM) | 5 (≈ 12.8 µM) |  |
| Fc1cc(Cl)ccc1Nc1nc(-c2c(Cl)cccc2Cl)cs1 | 0.1 (≈ 0.268 µM) | 0.1 (≈ 0.268 µM) | 0.5 (≈ 1.34 µM) |  |
| Clc1cccc(Cl)c1-c1csc(Nc2ccccc2)n1 | > 100 | 1 (≈ 3.11 µM) | 2 (≈ 6.23 µM) |  |
| Clc1ccc(Nc2nc(-c3c(Cl)cc(Cl)cc3Cl)cs2)cc1 | 0.05 (≈ 0.128 µM) | 0.1 (≈ 0.256 µM) | 0.3 (≈ 0.769 µM) |  |
| Clc1ccc(Nc2nc(-c3c(Cl)cccc3Cl)cs2)cc1 | 0.05 (≈ 0.141 µM) | 0.03 (≈ 0.0843 µM) | 0.4 (≈ 1.12 µM) | Activity [4]: 85.8%; Activity [7]: 0.9%; Activity [8]: 80.3%; Activity [9]: 1.7%; Activity [5]: 67.4%; Activity [10]: 15.3%; Activity [11]: 1.9%; Activity [12]: 44.9%; Activity [13]: 47.2%; Activity [14]: 3.6%; Activity [15]: 86.7%; Activity [16]: 0.7%; Activity [17]: 1.5%; Activity [6]: 28.5%; Activity [18]: 7.5%; Activity [19]: 72.5% |
| Clc1ccc(Oc2nc(-c3c(Cl)cccc3Cl)cs2)cc1 | 0.5 (≈ 1.4 µM) | 1 (≈ 2.8 µM) | 1 (≈ 2.8 µM) | Activity [20]: 68%; Activity [15]: 61.1% |
| Cc1ccc(Nc2nc(-c3c(Cl)cccc3Cl)cs2)cc1 | 0.3 (≈ 0.895 µM) | 0.1 (≈ 0.298 µM) | 3 (≈ 8.95 µM) |  |
| Clc1ccc(Cc2nc(-c3c(Cl)cccc3Cl)cs2)cc1 | > 100 | > 100 | > 100 | Activity [15]: 3.8% |
| CN(C)c1ccc(Nc2nc(-c3c(Cl)cccc3Cl)cs2)cc1 | > 100 | 1 (≈ 2.74 µM) | > 100 |  |
| COc1ccc(Nc2nc(-c3c(Cl)cccc3Cl)cs2)cc1 | > 100 | 0.1 (≈ 0.285 µM) | 10 (≈ 28.5 µM) |  |
| Clc1ccc(Nc2nc(-c3ccc(Cl)cc3)cs2)cc1 | > 100 | > 100 | 0.3 (≈ 0.934 µM) | Activity [20]: 8.4% |
